Among the data in PubChem BioAssay (NCI) are GI50 and TGI values, retold here.

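96-well plates; 48 h exposure; 5 concentrations. Endpoints by linear interpolation between flanking doses. Not reached: highest tested concentration assigned. The concentration for 50% growth inhibition is given as GI50. TGI: total growth inhibition.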 Some results are limits rather than exact numbers.

Among the test systems are EKVX NSCLC; HOP-92 NSCLC; HT29 colon; IGROV1 ovarian; KM12 colon; NCI-H23 lung; NCI-H522 lung; OVCAR-3 ovarian; OVCAR-5 ovarian; U251 CNS.
Holding throughout (test): NCI anticancer screen, dose series, 48 h

For `CN(Cc1cccc(Cl)c1)c1ccc(CO)c(Cl)c1`, the GI50 is 18.4 µM with EKVX NSCLC; 3.15 µM in the experiment with HOP-92 NSCLC; 9.93 µM with HT29 colon; 0.448 µM in the experiment with IGROV1 ovarian; 18.7 µM with KM12 colon; 11.5 µM with NCI-H23 lung. The GI50 in the experiment with NCI-H522 lung was 17.2 µM; in the experiment on OVCAR-3 ovarian, 3.46 µM; in the experiment on OVCAR-5 ovarian, 0.602 µM; in the experiment with U251 CNS it was 4.21 µM. The TGI in the experiment on EKVX NSCLC came out at 52.1 µM; in the experiment with HOP-92 NSCLC, 19.8 µM; with HT29 colon it was 31.2 µM; with IGROV1 ovarian it was 4.16 µM; with KM12 colon it was 43.3 µM; in the experiment on NCI-H23 lung, 46.1 µM. Also, the TGI in the experiment on NCI-H522 lung came out at 41.4 µM; in the experiment on OVCAR-3 ovarian it was 14 µM; in the experiment on OVCAR-5 ovarian it was 3.84 µM; with U251 CNS, 19.2 µM.
For the compound `O=C1OC(=O)C2C1C1(c3ccccc3)OC2(c2ccccc2)c2c(Br)c(Br)c(Br)c(Br)c21` (stereo not given), the TGI with EKVX NSCLC, with HOP-92 NSCLC, in the experiment with HT29 colon, in the experiment on IGROV1 ovarian, with KM12 colon and in the experiment on NCI-H23 lung was above 100 µM throughout. For the same compound, the TGI in the experiment with NCI-H522 lung, in the experiment with OVCAR-3 ovarian, with OVCAR-5 ovarian and in the experiment with U251 CNS was above 100 µM in each case.
Take `Nc1c2c(c(O)c3c1=C(CO)C=N3)=NCCS2=O` (stereo not given): the GI50 is 2.51 µM in the experiment with EKVX NSCLC; 2.67 µM with HOP-92 NSCLC; 1.78 µM with HT29 colon; 1.9 µM in the experiment with IGROV1 ovarian; 1.7 µM in the experiment with KM12 colon; 0.615 µM in the experiment on NCI-H23 lung. Further, the GI50 in the experiment with NCI-H522 lung was 1.37 µM; in the experiment with OVCAR-3 ovarian it was 0.28 µM; with OVCAR-5 ovarian, 1.66 µM; in the experiment with U251 CNS, 1.78 µM. The TGI in the experiment with EKVX NSCLC was determined as 7.51 µM; with HOP-92 NSCLC it was 5.46 µM; with HT29 colon it was 4.46 µM; in the experiment on IGROV1 ovarian, 4.29 µM; with KM12 colon, 10.6 µM; in the experiment with NCI-H23 lung, 5.64 µM. Moreover, the TGI in the experiment with NCI-H522 lung is 3.3 µM; in the experiment with OVCAR-3 ovarian it was 0.986 µM; in the experiment on OVCAR-5 ovarian it was 3.91 µM; with U251 CNS it was 3.26 µM.
On to `CCCCCCCCCCCCCCCc1nc(SCC(=O)O)n[nH]1`, for which the TGI in the experiment with EKVX NSCLC is above 100 µM; with HOP-92 NSCLC it was 65 µM; with HT29 colon, above 100 µM; in the experiment on IGROV1 ovarian, above 100 µM; in the experiment on KM12 colon, above 100 µM; in the experiment on NCI-H23 lung, above 100 µM. Further, the TGI in the experiment on NCI-H522 lung was above 100 µM; in the experiment with OVCAR-3 ovarian, above 100 µM; in the experiment on U251 CNS, 81.2 µM.
In the case of `COc1ccc(-n2cc(-c3ccc(F)cc3)[nH]c2=O)cc1OC`, the GI50 with EKVX NSCLC was above 100 µM; in the experiment with HOP-92 NSCLC it was 79.1 µM; in the experiment with HT29 colon, above 100 µM; with IGROV1 ovarian, above 100 µM; with KM12 colon, above 100 µM; in the experiment on NCI-H23 lung it was above 100 µM. The GI50 with NCI-H522 lung, with OVCAR-3 ovarian, in the experiment with OVCAR-5 ovarian and in the experiment on U251 CNS was above 100 µM in each case. For the same compound, the TGI in the experiment on EKVX NSCLC, with HOP-92 NSCLC, with HT29 colon, with IGROV1 ovarian, with KM12 colon and with NCI-H23 lung was above 100 µM each time. In addition, the TGI in the experiment with NCI-H522 lung, with OVCAR-3 ovarian, in the experiment with OVCAR-5 ovarian and in the experiment with U251 CNS was above 100 µM each time.
Turning to `Clc1ccc2c(NCCCNCc3ccc4c(c3)OCO4)ccnc2c1`, the GI50 was 9.4 µM in the experiment with EKVX NSCLC; 0.739 µM with HOP-92 NSCLC; 2.23 µM in the experiment on HT29 colon; 5.52 µM in the experiment with IGROV1 ovarian; 3.86 µM with KM12 colon; 8.59 µM in the experiment on NCI-H23 lung. Also, the GI50 in the experiment on NCI-H522 lung is 2.44 µM; with OVCAR-3 ovarian, 5.14 µM; in the experiment with OVCAR-5 ovarian, 5.41 µM; with U251 CNS it was 2.68 µM. In addition, the TGI is 24 µM in the experiment on EKVX NSCLC; 4.74 µM with HOP-92 NSCLC; 6.85 µM in the experiment with HT29 colon; 20.9 µM in the experiment with IGROV1 ovarian; 15.1 µM in the experiment with KM12 colon; 23.8 µM in the experiment on NCI-H23 lung. The TGI amounted to 8.01 µM with NCI-H522 lung, 18.7 µM with OVCAR-3 ovarian, 18.8 µM in the experiment on OVCAR-5 ovarian and 7.11 µM in the experiment with U251 CNS.
Regarding `CC(=O)NC1C(OCc2ccccc2)OC(COC(=O)CCCCCCCCCCNC(=O)CCNc2ccc([N+](=O)[O-])c3[nH]c4ccc(O)cc4c(=O)c23)C(O)C1OC(C)C(=O)N[C@H](C(=O)N[C@H](CCC(=O)O)C(N)=O)C(C)C` (stereo not given in full), the TGI is above 100 µM with EKVX NSCLC; 88.4 µM with HOP-92 NSCLC; above 100 µM with HT29 colon; above 100 µM in the experiment with IGROV1 ovarian; above 100 µM in the experiment on KM12 colon; above 100 µM with NCI-H23 lung. Besides, the TGI with NCI-H522 lung is 40.4 µM; with OVCAR-3 ovarian it was above 100 µM; in the experiment with OVCAR-5 ovarian it was above 100 µM; in the experiment with U251 CNS, above 100 µM.
Regarding `Cn1c(=O)c2nc3sc4ccccc4c(=N)n3c2n(C)c1=O`, the TGI in the experiment on EKVX NSCLC, in the experiment with HOP-92 NSCLC, with HT29 colon, in the experiment on IGROV1 ovarian, in the experiment with KM12 colon and in the experiment with NCI-H23 lung was above 100 µM each time. The TGI with NCI-H522 lung and with OVCAR-5 ovarian was above 100 µM each time.
As to `COC(=O)/C=C/c1cc(OC)c2c(c1)[C@@H](C(=O)OC)[C@H](c1ccc(OC)c(OC)c1)O2`, the GI50 in the experiment with EKVX NSCLC was 4.62 µM; in the experiment with HOP-92 NSCLC, 13.1 µM; with HT29 colon it was 0.505 µM; in the experiment with IGROV1 ovarian, 3.84 µM; in the experiment with KM12 colon, 0.703 µM; in the experiment with NCI-H23 lung, 3.57 µM. The GI50 is 1.44 µM with NCI-H522 lung, 5.23 µM with OVCAR-5 ovarian and 1.38 µM with U251 CNS. Moreover, the TGI in the experiment with EKVX NSCLC, in the experiment on HOP-92 NSCLC, with HT29 colon, with IGROV1 ovarian, in the experiment on KM12 colon and with NCI-H23 lung was above 100 µM throughout. In addition, the TGI in the experiment on NCI-H522 lung, with OVCAR-5 ovarian and with U251 CNS was above 100 µM throughout.
